According to PubChem BioAssay (NCI):
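Each compound was tested at five concentrations against cells in 96-well plates for 48 hours. Abbreviation: GI50, concentration required for 50% inhibition of growth. TGI marks complete inhibition of growth.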

Tests used:
Assay in all cases: DTP human tumour cell line panel, 48 h
786-0 renal = system: 786-0 renal
A498 renal = system: A498 renal
A549 NSCLC = system: A549 NSCLC
ACHN renal = system: ACHN renal
BT-549 breast = system: BT-549 breast
CAKI-1 renal = system: CAKI-1 renal
CCRF-CEM leukemia = system: CCRF-CEM leukemia
COLO 205 colon = system: COLO 205 colon
DU-145 prostate = system: DU-145 prostate
EKVX NSCLC = system: EKVX NSCLC
HCC-2998 colon = system: HCC-2998 colon
HCT-116 colon = system: HCT-116 colon
HCT-15 colon = system: HCT-15 colon
HL-60(TB) leukemia = system: HL-60(TB) leukemia
HOP-62 NSCLC = system: HOP-62 NSCLC
HOP-92 NSCLC = system: HOP-92 NSCLC
HS 578T breast = system: HS 578T breast
HT29 colon = system: HT29 colon
IGROV1 ovarian = system: IGROV1 ovarian
K-562 leukemia = system: K-562 leukemia
KM12 colon = system: KM12 colon
M14 melanoma = system: M14 melanoma
MALME-3M melanoma = system: MALME-3M melanoma
MCF7 breast = system: MCF7 breast
MDA-MB-231 breast = system: MDA-MB-231 breast
MDA-MB-435 = system: MDA-MB-435
MOLT-4 leukemia = system: MOLT-4 leukemia
NCI-H23 lung = system: NCI-H23 lung
NCI-H460 lung = system: NCI-H460 lung
NCI/ADR-RES ovarian = system: NCI/ADR-RES ovarian
OVCAR-4 ovarian = system: OVCAR-4 ovarian
OVCAR-5 ovarian = system: OVCAR-5 ovarian
OVCAR-8 ovarian = system: OVCAR-8 ovarian
PC-3 prostate = system: PC-3 prostate
RPMI-8226 leukemia = system: RPMI-8226 leukemia
RXF 393 renal = system: RXF 393 renal
SF-268 CNS = system: SF-268 CNS
SF-295 CNS = system: SF-295 CNS
SF-539 CNS = system: SF-539 CNS
SK-MEL-2 melanoma = system: SK-MEL-2 melanoma
SK-MEL-28 melanoma = system: SK-MEL-28 melanoma
SK-MEL-5 melanoma = system: SK-MEL-5 melanoma
SK-OV-3 ovarian = system: SK-OV-3 ovarian
SN12C renal = system: SN12C renal
SNB-19 CNS = system: SNB-19 CNS
SNB-75 CNS = system: SNB-75 CNS
SR leukemia = system: SR leukemia
SW-620 colon = system: SW-620 colon
T-47D breast = system: T-47D breast
TK-10 renal = system: TK-10 renal
U251 CNS = system: U251 CNS
UACC-257 melanoma = system: UACC-257 melanoma
UACC-62 melanoma = system: UACC-62 melanoma
UO-31 renal = system: UO-31 renal

C#C[C@]1(O)CC[C@H]2[C@@H]3CC=C4c5sc(Nc6cccc(F)c6)nc5CC[C@]4(C)[C@H]3CC[C@@]21C
GI50 (786-0 renal): 371 nM
TGI (786-0 renal): 2110 nM
GI50 (A498 renal): 368 nM
TGI (A498 renal): 2030 nM
GI50 (A549 NSCLC): 2730 nM
TGI (A549 NSCLC): 20300 nM
GI50 (ACHN renal): 1350 nM
TGI (ACHN renal): 4220 nM
GI50 (BT-549 breast): 456 nM
TGI (BT-549 breast): 3550 nM
GI50 (CAKI-1 renal): 1030 nM
TGI (CAKI-1 renal): 10800 nM
GI50 (CCRF-CEM leukemia): 534 nM
TGI (CCRF-CEM leukemia): 4160 nM
GI50 (COLO 205 colon): 1830 nM
TGI (COLO 205 colon): 4630 nM
GI50 (DU-145 prostate): 1490 nM
TGI (DU-145 prostate): 3970 nM
GI50 (EKVX NSCLC): 1650 nM
TGI (EKVX NSCLC): 15200 nM
GI50 (HCC-2998 colon): 2410 nM
TGI (HCC-2998 colon): 6460 nM
GI50 (HCT-116 colon): 982 nM
TGI (HCT-116 colon): 2350 nM
GI50 (HCT-15 colon): 1450 nM
TGI (HCT-15 colon): 4260 nM
GI50 (HL-60(TB) leukemia): 618 nM
TGI (HL-60(TB) leukemia): 2890 nM
GI50 (HOP-62 NSCLC): 2150 nM
TGI (HOP-62 NSCLC): 13600 nM
GI50 (HOP-92 NSCLC): 2190 nM
TGI (HOP-92 NSCLC): 7620 nM
GI50 (HS 578T breast): 364 nM
TGI (HS 578T breast): 3700 nM
GI50 (HT29 colon): 1520 nM
TGI (HT29 colon): 6060 nM
GI50 (IGROV1 ovarian): 1950 nM
TGI (IGROV1 ovarian): 7200 nM
GI50 (K-562 leukemia): 677 nM
TGI (K-562 leukemia): 3540 nM
GI50 (KM12 colon): 1890 nM
TGI (KM12 colon): 5690 nM
GI50 (M14 melanoma): 1310 nM
TGI (M14 melanoma): 5870 nM
GI50 (MALME-3M melanoma): 1490 nM
TGI (MALME-3M melanoma): 4710 nM
GI50 (MCF7 breast): 963 nM
TGI (MCF7 breast): 3690 nM
GI50 (MDA-MB-231 breast): 1940 nM
TGI (MDA-MB-231 breast): 5490 nM
GI50 (MDA-MB-435): 1650 nM
TGI (MDA-MB-435): 7500 nM
GI50 (MOLT-4 leukemia): 306 nM
TGI (MOLT-4 leukemia): 947 nM
GI50 (NCI-H23 lung): 1950 nM
TGI (NCI-H23 lung): 8420 nM
GI50 (NCI-H460 lung): 1160 nM
TGI (NCI-H460 lung): 3020 nM
GI50 (NCI/ADR-RES ovarian): 2320 nM
TGI (NCI/ADR-RES ovarian): 7610 nM
GI50 (OVCAR-4 ovarian): 2590 nM
TGI (OVCAR-4 ovarian): 16300 nM
GI50 (OVCAR-5 ovarian): 1760 nM
TGI (OVCAR-5 ovarian): 4470 nM
GI50 (OVCAR-8 ovarian): 3040 nM
TGI (OVCAR-8 ovarian): 87200 nM
GI50 (PC-3 prostate): 659 nM
TGI (PC-3 prostate): 12300 nM
GI50 (RPMI-8226 leukemia): 204 nM
TGI (RPMI-8226 leukemia): 615 nM
GI50 (RXF 393 renal): 65.3 nM
TGI (RXF 393 renal): 328 nM
GI50 (SF-268 CNS): 1620 nM
TGI (SF-268 CNS): 7500 nM
GI50 (SF-295 CNS): 208 nM
TGI (SF-295 CNS): 499 nM
GI50 (SF-539 CNS): 221 nM
TGI (SF-539 CNS): 1060 nM
GI50 (SK-MEL-2 melanoma): 1100 nM
TGI (SK-MEL-2 melanoma): 4450 nM
GI50 (SK-MEL-28 melanoma): 500 nM
TGI (SK-MEL-28 melanoma): 2060 nM
GI50 (SK-MEL-5 melanoma): 1600 nM
TGI (SK-MEL-5 melanoma): 3220 nM
GI50 (SK-OV-3 ovarian): 1860 nM
TGI (SK-OV-3 ovarian): 10100 nM
GI50 (SN12C renal): 3330 nM
TGI (SN12C renal): 13100 nM
GI50 (SNB-19 CNS): 1490 nM
TGI (SNB-19 CNS): 3880 nM
GI50 (SNB-75 CNS): 310 nM
TGI (SNB-75 CNS): 6080 nM
GI50 (SR leukemia): 340 nM
TGI (SR leukemia): 2960 nM
GI50 (SW-620 colon): 1720 nM
TGI (SW-620 colon): 4500 nM
GI50 (T-47D breast): 2140 nM
TGI (T-47D breast): 13800 nM
GI50 (TK-10 renal): 3760 nM
TGI (TK-10 renal): 15700 nM
GI50 (U251 CNS): 821 nM
TGI (U251 CNS): 3880 nM
GI50 (UACC-257 melanoma): 2310 nM
TGI (UACC-257 melanoma): 17000 nM
GI50 (UACC-62 melanoma): 1250 nM
TGI (UACC-62 melanoma): 3870 nM
GI50 (UO-31 renal): 937 nM
TGI (UO-31 renal): 2790 nM
